Source: patent publication US6444787B1, “Method of isolating a peptide which immunologically mimics microbial carbohydrates including group B streptococcal carbohydrates and the use thereof in a vaccine” (Research Development Institute, Inc., priority 1997, dated 2002)
Ends that are not written are not given here.

Test system: anti-GBS antibodies
Test: ELISA, binding of antibodies to synthetic peptide
Design: species or system murine
Settings: peptide coated at 10 μg/ml; FIG. 1 panel A
Method: Microtiter wells were coated with peptide at 10 μg/ml and then blocked with 1% BSA. Test antibodies were added to the wells, incubated and washed. Antibody binding was detected with alkaline phosphatase conjugated anti-Ig and then substrate. The values are A405, mean of duplicate or triplicate samples. […] The binding of all antibodies to BSA was<0.1.
Capsular polysaccharide was coated directly onto microtiter wells.

Sequence: FDTGAFDPDWPAC
- Binding of monoclonal antibodies S7 and S9 to peptide: seen only with antibody S9
